Measured values published in patent US20240279275A1, “HEXAPEPTIDE DERIVATIVE AND COSMETIC COMPOSITION OR PHARMACEUTICAL COMPOSITION AND USE THEREOF” (SHENZHEN WINKEY TECHNOLOGY CO., LTD, priority 2021, published 2024).
Residues, ends and D or L forms follow the SMILES beside them. *: point of attachment. Caffeoyl = O=C(/C=C/c1ccc(O)c(O)c1)*; Galloyl = O=C(c1cc(O)c(O)c(O)c1)*

Assays:
NIH3T3 cells [1] = test: Cell proliferation assay (MTT); assay type: cell-based, Mouse; settings: 72 h
Source text: (§1) Mouse skin fibroblasts (NIH3T3) were purchased from the Shanghai Cell Bank of China Center for Type Culture Collection under the Chinese Academy of Sciences.
• CA, at a test concentration of 1 ppm, 10 ppm, 100 ppm, and 500 ppm, respectively; • GA, at a test concentration of 1 ppm, 10 ppm, 100 ppm, and 500 ppm, respectively; • the peptide H-Gly-Pro-Gln-Gly-Pro-Gln-NH2 (hereinafter referred to as the reference peptide), at a test concentration of 1 ppm, 10 ppm, 100 ppm, and 500 ppm, respectively; • the peptide (2) CA-Gly-Pro-Gln-Gly-Pro-Gln-NH2, at a test concentration of 1 ppm, 10 ppm, 100 ppm, and 500 ppm, respectively; • the peptide (4) GA-Gly-Pro-Gln-Gly-Pro-Gln-NH2, at a test concentration of 1 ppm, 10 ppm, 100 ppm, and 500 ppm, respectively.
The purpose of this experiment is to evaluate cell viability 72 h after administration and determine the effect of the peptide derivatives of the present invention on cell proliferation by using NIH3T3 cells as the experiment subject.
NIH3T3 cells in good exponential growth phase were taken. A 0.25% trypsin digestion solution was added so that digestion allowed the adherent cells to fall off, counting (1−4)×10^5 cells/mL, which were prepared into a cell suspension.
The cell suspension was inoculated on a 96-well plate with 200 μL/well, and cultured in a constant-temperature CO2 incubator for 24 h.
After changing the medium, the cell suspension was added to drug groups and the control group, respectively, each of which was placed in 20 μL/well and incubated in a 37° C., 5% CO2 incubator for 72 h.
Then 20 μL 5 mg/ml MTT was added to each well and the incubation was continued for 4 h in the 37° C., 5% CO2 incubator. The original solution was removed and 150 μL/well DMSO was added. The plate was placed on a plate shaker for shaking for 5 min. A microplate reader was used to determine the OD value of each well at a wavelength of 570 nm, and calculate the cell viability.
Cell viability=[OD(administration well)−OD(zero adjustment well)]/[OD(control well)−OD(zero adjustment well)]×100%

NIH3T3 cells [2] = test: β-galactosidase staining assay, UV photoaging model; assay type: cell-based, Mouse; settings: after UV irradiation, 24 h
Source text: as §1
• CA, at a test concentration of 1 ppm, 10 ppm, and 100 ppm, respectively; • GA, at a test concentration of 10 ppm; • the reference peptide, at a test concentration of 1 ppm, 10 ppm, and 100 ppm, respectively; • the peptide (2), at a test concentration of 1 ppm, 10 ppm, and 100 ppm, respectively; • the peptide (4) at a test concentration of 10 ppm. 3.
The purpose of this experiment is to test the impact of the peptide derivatives of the present invention on cell senescence using a β-galactosidase staining assay to evaluate the anti-photoaging capability.
(§2) The frozen NIH3T3 cells were cultured and passaged at a ratio of 1:2 to about the 5th generation, and the cells in better growth were selected as experiment subjects.
The cells were inoculated into a 96-well plate at 10,000 cells/well, and when the cells were approximately 80% full, a UV photoaging model was established. In the control group, a PBS solution was added, supplemented with the culture medium to 200 μL, while no UV irradiation was performed; For the UV group and the drug group, a proper amount of PBS was added to wash the culture repeatedly until colorless, followed by adding 50 μL PBS and irradiating under an 80 J/cm^3 UV light. The distance between the light source and the culture bottle was 15 cm. After irradiation, the PBS was removed. In the UV group, a PBS solution and the culture medium were added to 200 μL; in the drug group, the culture medium and the drug diluted in a certain ratio were added to 200 μL. The control group, the UV group, and the drug group were further incubated in a 37° C., 5% CO2 incubator for 24 h. The culture medium was removed. 100 μL 4% paraformaldehyde was added to each well and fixed at room temperature for 15 min, followed by washing with PBS three times, adding a β-galactosidase staining agent (X-gal 0.01%, potassium ferricyanide 0.16%, ferrocyanide potassium 0.02%) 50 μL/well, sealing with plastic wrap, and staining in a 37° C. incubator in the dark for 12 h. The staining solution was removed. Each group was washed with PBS three times, and photographed under a light microscope. The number of cells in the field of view and the number of stained cells were counted.
UV irradiation can cause cell senescence, and the cytoplasm of senescent cells are stained blue-green by the β-galactosidase agent (shown as the dark part in the black and white images). This experiment evaluates the anti-photoaging capability of the peptide derivatives of the present invention through staining morphology images and senescent cell staining statistics.

NIH3T3 cells [3] = test: ROS staining assay, UV photoaging model; assay type: cell-based, Mouse; settings: after UV irradiation, 24 h, ROS fluorescent probe
Source text: as §1
• CA, at a test concentration of 1 ppm; • GA, at a test concentration of 10 ppm; • the reference peptide, at a test concentration of 1 ppm and 10 ppm, respectively; • the peptide (2), at a test concentration of 1 ppm; • the peptide (4), at a test concentration of 10 ppm.
Another indication of aging is an increase in intracellular oxidative stress levels, that is, an increase in ROS, and aging can be slowed down by alleviating oxidative stress. The purpose of this experiment is to test the impact of the peptide derivatives of the present invention on oxidative stress levels using ROS staining assay, thereby evaluating the antioxidant effect.
as §2
The cells were inoculated into a 96-well plate at 10,000 cells/well, and when the cells were approximately 80% full, a UV photoaging model was established. In the control group, a PBS solution was added, supplemented with the culture medium to 200 μL, while no UV irradiation was performed; For the UV group and the drug group, a proper amount of PBS was added to wash the culture repeatedly until colorless, followed by adding 50 μL PBS and irradiating under an 80 J/cm^3 UV light. The distance between the light source and the culture bottle was 15 cm. After irradiation, the PBS was removed. In the UV group, a PBS solution and the culture medium were added to 200 μL; in the drug group, the culture medium and the drug diluted in a certain ratio were added to 200 μL. The control group, the UV group, and the drug group were further incubated in a 37° C., 5% CO2 incubator for 24 h.
The culture medium was removed. Each group was stained according to the ROS probe instructions for 20 min and was observed under a fluorescence microscope.

[4] = cited from earlier work
[5] = 500 ppm, compared with the control group
[6] = test concentrations 1 ppm to 100 ppm

Compound: O=C(O)C=Cc1ccc(O)c(O)c1 [CA, 3,4-dihydroxycinnamic acid]
- effect on NIH3T3 cell viability / toxicity (NIH3T3 cells [1]; [5]): significant toxicity
- proportion of senescent cells (β-galactosidase staining) (NIH3T3 cells [2]; [6]): unable to reduce the proportion of senescent cells
- ROS level per unit cells (NIH3T3 cells [3]; 1 ppm): reduced the ROS level per unit cells to a certain extent
- solubility in cold water [4]: slightly soluble

Compound: O=C(O)c1cc(O)c(O)c(O)c1 [GA, 3,4,5-trihydroxybenzoic acid]
- effect on NIH3T3 cell viability / toxicity (NIH3T3 cells [1]; 100 ppm, compared with the control group): significant toxicity
- effect on NIH3T3 cell viability / toxicity (NIH3T3 cells [1]; [5]): significant toxicity
- proportion of senescent cells (β-galactosidase staining) (NIH3T3 cells [2]; 10 ppm): unable to reduce the proportion of senescent cells
- ROS level per unit cells (NIH3T3 cells [3]; 10 ppm): had a certain effect in reducing ROS
- solubility in cold water [4]: insoluble

Compound: NC(=O)CCC(NC(=O)C1CCCN1C(=O)CNC(=O)C(CCC(N)=O)NC(=O)C1CCCN1C(=O)CNC(=O)/C=C/c1ccc(O)c(O)c1)C(N)=O (stereo not drawn) [peptide (2), CA-Gly-Pro-Gln-Gly-Pro-Gln-NH2] (Caffeoyl-GPQGPQ-NH2; configuration not given here)
- effect on NIH3T3 cell viability / toxicity (NIH3T3 cells [1]; [5]): significantly improve cell viability
- proportion of senescent cells (β-galactosidase staining) (NIH3T3 cells [2]; [6]): significantly reduced the proportion of senescent cells
- ROS level per unit cells (NIH3T3 cells [3]; 1 ppm): significantly reduced the expression of ROS per unit cells

Compound: NC(=O)CCC(NC(=O)C1CCCN1C(=O)CNC(=O)C(CCC(N)=O)NC(=O)C1CCCN1C(=O)CNC(=O)c1cc(O)c(O)c(O)c1)C(N)=O (stereo not drawn) [peptide (4), GA-Gly-Pro-Gln-Gly-Pro-Gln-NH2] (Galloyl-GPQGPQ-NH2; configuration not given here)
- toxic effect on NIH3T3 cells (NIH3T3 cells [1]; high concentrations): did not have a toxic effect
- proportion of senescent cells (β-galactosidase staining) (NIH3T3 cells [2]; 10 ppm): reduced the proportion of senescent cells
- ROS level per unit cells (NIH3T3 cells [3]; 10 ppm): more significantly reduced the expression of ROS per unit cells

Compound: H-Gly-Pro-Gln-Gly-Pro-Gln-NH2 (H-GPQGPQ-NH2) [reference peptide, collagen peptide of EP1406589B1]
- effect on NIH3T3 cell viability (NIH3T3 cells [1]; 10 ppm to 500 ppm, compared with the control group): improved cell viability
- proportion of senescent cells (β-galactosidase staining) (NIH3T3 cells [2]; [6]): unable to reduce the proportion of senescent cells
- ROS level per unit cells (NIH3T3 cells [3]; 1 ppm): failed to reduce the ROS level per unit cells
- ROS level per unit cells (NIH3T3 cells [3]; 10 ppm): had a certain effect in reducing ROS
- solubility in water ([4]; water): good solubility in water
